From patent US10959984B2, “Methods for treating cancer with RORγ inhibitors” (THE REGENTS OF THE UNIVERSITY OF CALIFORNIA, priority 2015, dated 2021)

Tests used:
22Rv1 xenografts = test: 22Rv1 xenograft tumor growth; assay type: in vivo, mice; conditions: nude mice; SR2211 5 mg/kg i.p., 8k/E11 10 and 20 mg/kg i.p., five times per week (FIG. 3A)
Protocol: (§1) Four-week-old male SCID C.B17 mice (for C4-2B and VCaP) or BALB/c nu/nu athymic mice (for 22Rv11 and PC-3) were purchased from Harlan Inc. For establishing tumors, 2×10^6 cells were suspended in total of 100 μL PBS/Matrigel (1:1) and implanted subcutaneously into the dorsal flank on both sides of the mice. Animal group size of six or more was estimated to have a high statistic power, based on power calculation (http://www.biomath.info/power/) and previous studies involving the same xenograft models^34,68. When the tumor volume was approximately 80 mm^3, the mice were randomized and then treated intraperitoneally (i.p.) with 100 μl of either vehicle or RORγ antagonists SR2211, XY011/8k (in a formulation of 15% Cremophor EL, Calbiochem, 82.5% PBS, and 2.5% DMSO) for five times per week. Tumor growth was monitored by calipers with volume calculated using the equation: (π/6 (length×width2)). Body weight during the course of the study was also monitored. At the end of the studies mice were killed and tumors were dissected and weighed. Additionally, prostate, seminal vesicle, testis, kidney, heart, lung, liver, epididymal fat pad and spleen were harvested and weighed. To assess the effect of combining RORγ antagonists and ENZ on the growth of castrated-resistant VCaP xenografts (CRPC-VCaP), first, SCID C.B17 mice were injected with VCaP cells as above to establish the tumors. Then, mice bearing tumors of approximately 180 mm^3 were surgically castrated. They were then observed for tumor regression. Once tumors grew back to the pre-castration size, mice were randomized and treated with vehicle, 5 mg kg^−1 SR2211, 10 mg kg^+1 ENZ or a combination of 5 mg kg^−1 SR2211 and 10 mg kg^−1 ENZ. ENZ was given by oral gavage as previously described^68 and SR2211 was administered i.p as above. Mice were excluded from the study if bearing no tumor or tumor with size twice larger or smaller than the mean, at the time of randomization.

CRPC-VCaP xenografts = test: Castration-resistant VCaP (CRPC-VCaP) xenograft tumor growth; assay type: in vivo; conditions: castrated mice, ENZ alone, 10 mg/kg oral
Protocol: as §1, with “Then, mice bearing tumors of approximately 180 mm^3 were surgically castrated. They were then observed for tumor regression. Once tumors grew back to the pre-castration size, mice were randomized and treated with vehicle, 5 mg kg^−1 SR2211, 10 mg kg^+1 ENZ or a combination of 5 mg kg^−1 SR2211 and 10 mg kg^−1 ENZ. ENZ was given by oral gavage as previously described^68 and SR2211 was administered i.p as above. Mice were excluded from the study if bearing no tumor or tumor with size twice larger or smaller than the mean, at the time of randomization.” left out

AR = test: ARE reporter gene assay (5xARE-tk-luc) in 22Rv1 cells; assay type: cell-based, human
Protocol: Transient transfection and reporter gene assays were performed as previously described^49 with the following modifications. ARE reporter gene assays were performed by transfecting 22Rv1 cells with 5×ARE-tk-luc, pcDNA3.1-hAR and pCMV-β-gal for normalization. For transfection with constructs omitted for specific gene expression, corresponding empty vectors were used to ensure equal amount of total DNA used. Briefly, 22Rv1 cells seeded in 96-well plates in hormone-deprived medium supplemented with 10% cds-FBS (Hyclone) were transfected with lipofectamine 2000 (Life technology, Carlsbad, Calif., USA) and the indicated plasmid DNA. Cells were then treated at 12 hours after transfection with 3 nm R1881, indicated concentrations of RORγ antagonists or ENZ for another 24 hours before harvested for β-gal and luciferase assays. For RORE reporter gene assays, 4×AR-RORE-tk-luc was constructed by inserting four copies of the newly identified AR-RORE TTCTGGGTCA (SEQ ID NO: 1) into tk-luciferase reporter vector. AR-RORE mutant form (AR-RORE mut) contains sequences mutated from TTCTGGGTCA (SEQ ID NO: 1) to TTCTGAACGA (SEQ ID NO: 2). […] The luciferase and β-galactosidase were then analyzed with a Luciferase Assay Substrate (Promega) and Luminescent β-galactosidase Detection Kit II (Clontech). […]

[1] = mouse, in vivo
Protocol: as §1, with “Then, mice bearing tumors of approximately 180 mm^3 were surgically castrated. They were then observed for tumor regression. Once tumors grew back to the pre-castration size, mice were randomized and treated with vehicle, 5 mg kg^−1 SR2211, 10 mg kg^+1 ENZ or a combination of 5 mg kg^−1 SR2211 and 10 mg kg^−1 ENZ. ENZ was given by oral gavage as previously described^68 and SR2211 was administered i.p as above. Mice were excluded from the study if bearing no tumor or tumor with size twice larger or smaller than the mean, at the time of randomization.” left out

For `CNC(=O)c1ccc(N2C(=S)N(c3ccc(C#N)c(C(F)(F)F)c3)C(=O)C2(C)C)cc1F` [ENZ, enzalutamide], the “growth of xenograft tumors” value (22Rv1 xenografts) was “did not show any significant inhibitory effect”, the CRPC tumor growth (CRPC-VCaP xenografts) was “only marginally effective” and the “response of multimerized ARE-driven reporter” value (AR) was “repressed”. For the same molecule, the “tolerability based on weight of whole body and vital organs, and general behaviors” value [1] was “well tolerated”.
